The nature of series [1]: log P (pH 2.7) given with the preparation examples. Type of series: physicochemical. The settings on record: for logP: pH 2.7, pH 2.7.
A further series relates to Phytophthora infestans. Type of series: in vivo. The conditions noted are these: tomato young plants, protective spray, active ingredient concentration 10 ppm, evaluation 3 days after inoculation; 0% = control, 100% = no infection.

Take `CC(C)(C)OC(=O)N1CCC(c2nc(C=NO)cs2)CC1` [A, tert-Butyl 4-{4-[(hydroxyimino)methyl]-1,3-thiazol-2-yl}piperidine-1-carboxylate]: the “log P (pH 2.7)” value in series [1] (pH 2.7) is 2.38. In series [1], this molecule gave a logP of 2.25.

Molecule `O=C(O)C1CC(c2csc(C3CCN(C(=O)Cn4nc(C(F)F)cc4C(F)F)CC3)n2)=NO1` (stereo not drawn) [D, 3-[2-(1-{[3,5-Bis(difluoromethyl)-1H-pyrazol-1-yl]acetyl}piperidin-4-yl)-1,3-thiazol-4-yl]-4,5-dihydro-1,2-oxazole-5-carboxylic acid] showed a logP in series [1] of 1.77.

Take `O=C(OC1CCCCC1Cl)C1CC(c2csc(C3CCN(C(=O)Cn4nc(C(F)F)cc4C(F)F)CC3)n2)=NO1` (stereo not drawn) [Example I-5, 2-Chlorocyclohexyl 3-[2-(1-{[3,5-bis(difluoromethyl)-1H-pyrazol-1-yl]acetyl}piperidin-4-yl)-1,3-thiazol-4-yl]-4,5-dihydro-1,2-oxazole-5-carboxylate]: the chromatographic logP worked out at 3.42 in “physchem” (pH 2.3) and 3.5 in “physchem” (pH 7.8). In series [1] (reversed-phase HPLC column (C18)), this molecule registered a logP of 3.43. For the same molecule, the “Eff (efficacy)” value in the series on Phytophthora infestans is reported as 93%.

Consider `COC(=O)C1CC(c2csc(C3CCN(C(=O)Cn4nc(C(F)F)cc4C(F)F)CC3)n2)=NO1` (stereo not drawn) [Example I-1, methyl 3-[2-(1-{[3,5-bis(difluoromethyl)-1H-pyrazol-1-yl]acetyl}piperidin-4-yl)-1,3-thiazol-4-yl]-4,5-dihydro-1,2-oxazole-5-carboxylate], for which the chromatographic logP in “physchem” (pH 2.3) and in “physchem” (pH 7.8) was 2.28 in each case. Moreover, in series [1], the logP came to 2.26. Moreover, in the series with Phytophthora infestans, the “Eff (efficacy)” value came to 75%.

Regarding `CCOC(=O)C1CC(c2csc(C3CCN(C(=O)OC(C)(C)C)CC3)n2)=NO1` (stereo not drawn) [B, tert-Butyl 4-{4-[5-(ethoxycarbonyl)-4,5-dihydro-1,2-oxazol-3-yl]-1,3-thiazol-2-yl}piperidine-1-carboxylate], the log partition coefficient (logP) in series [1] came out at 3.14.

The term logP denotes the decadic logarithm of the partition coefficient of the neutral form, usually between octanol and water. High values mean higher lipophilicity, low ones lower lipophilicity. A word on the chromatographic logP: it is lipophilicity estimated from chromatographic retention. A high value points to a more lipophilic compound.

Values taken from patent publication US9204649B2 (priority 2011, dated 2015).
